# Source: ChEMBL document CHEMBL1201862, “PubChem BioAssay data set” (2004)
# Activity calls are given as the source filed them. Rule as the data show it: actives have a measured IC50 and inactives only a lower limit.
# Target: Envelope glycoprotein gp160 (Human immunodeficiency virus 1, UniProt Q6QLK5)
# Assay: cell-free HIV fusion peptide-binding blockers – biochemical, uHTS, fluorescence dequenching, […] (AID 1986)
# Chain of Envelope glycoprotein gp160 (Q6QLK5 whole entry, the tested form may be a part): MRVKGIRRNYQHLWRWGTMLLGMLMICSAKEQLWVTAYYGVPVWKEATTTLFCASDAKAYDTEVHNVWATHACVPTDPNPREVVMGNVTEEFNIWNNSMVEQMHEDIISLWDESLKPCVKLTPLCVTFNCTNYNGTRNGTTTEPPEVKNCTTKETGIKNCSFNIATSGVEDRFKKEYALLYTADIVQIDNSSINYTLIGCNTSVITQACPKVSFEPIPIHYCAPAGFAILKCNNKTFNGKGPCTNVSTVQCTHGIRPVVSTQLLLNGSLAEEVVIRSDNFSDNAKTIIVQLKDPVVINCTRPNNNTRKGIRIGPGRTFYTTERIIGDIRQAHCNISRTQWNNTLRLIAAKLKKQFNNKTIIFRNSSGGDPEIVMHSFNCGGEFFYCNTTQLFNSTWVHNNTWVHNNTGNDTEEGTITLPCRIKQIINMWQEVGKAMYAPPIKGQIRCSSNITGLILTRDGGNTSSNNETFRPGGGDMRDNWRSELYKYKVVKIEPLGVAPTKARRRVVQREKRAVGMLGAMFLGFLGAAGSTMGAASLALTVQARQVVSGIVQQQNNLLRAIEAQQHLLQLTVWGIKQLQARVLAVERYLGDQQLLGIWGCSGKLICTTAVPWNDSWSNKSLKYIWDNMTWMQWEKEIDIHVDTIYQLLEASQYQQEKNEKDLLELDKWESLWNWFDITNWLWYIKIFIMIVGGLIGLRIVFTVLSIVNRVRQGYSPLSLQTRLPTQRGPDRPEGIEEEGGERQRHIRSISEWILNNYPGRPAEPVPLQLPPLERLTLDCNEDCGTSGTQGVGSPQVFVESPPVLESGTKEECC
row,Compound,IC50
1,CS(=O)(=O)C1=NSC2=NC(=O)/C(=C\c3cccn3-c3ccc(Cl)cc3)C(=N)N21,18.5 µM (active)
2,CC(C)CS(=O)(=O)C1=NSC2=NC(=O)/C(=C\c3ccc(OC(=O)c4ccco4)cc3)C(=N)N21,15.6 µM (active)
3,CSc1ccc(C(c2c(C(=O)O)[nH]c3ccccc23)c2c(C(=O)O)[nH]c3ccccc23)cc1,8.99 µM (active)
4,CCOc1ccc(CCNC(=O)c2ccc3c(=O)[nH]c4c(C(=O)NC(C)C)sc(=S)n4c3c2)cc1,62.5 µM (active)
5,COc1cc([N+](=O)[O-])cc(/C=N/NC(=O)c2cc(-c3ccccc3)nc3ccccc23)c1O,30.3 µM (active)
